One data set relates to HIV-1/100-Ile. Briefly: Inhibition of HIV-1 induced syncytium formation in CEM cells, RT mutant 100-Ile. The data set is classed as cell-based. To be noted: Human immunodeficiency virus 1, CCRF-CEM, 96 h, Table 2A, day 4, averages of 2 to 3 independent experiments, read-out: Antiviral Activity EC50, 100-Ile. The method in brief: (§1)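 CEM cells (≈300,000/ml) infected with about 100 CCID50 of HIV-1(IIIB) or RT mutant strains, then added to 5-fold serial dilutions of test compounds. Inhibition of virus-induced syncytium formation scored microscopically on day 4 post infection.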

The subject of data set [1] is HIV-1(IIIB) and the HIV-1 RT mutants. Briefly: Antiviral activity in CEM cells against wild type and RT mutants. The format is cell-based. An excerpt: (§2) CEM cells were obtained from the American Tissue Cell Culture Collection (Rockville, Md.). HIV-1(IIIB) was originally obtained from the culture supernatant of persistently HIV-1-infected H9 cells and was provided by R. C. Gallo and M. Popovic (National Cancer Institute, National Institutes of Health, Bethesda, Md.). […] 67: 5353-5359 (1993); HIV-1/Lys-138 ("Lys-138") was selected for resistance against TSAO-m^3T as described in Balzarini et al, Virology 192: 246-253 (1993) and Balzarini et al, Proc. Nat. Acad. Sci. USA 90: 6952-6956 (1993); HIV-1/181-Cys ("181-Cys") was selected for resistance against pyridinone L-697,661 as described in Balzarini et al, Virology 192: 246-253 (1993); and HIV-1/188-His ("188-His") was selected for resistance against HEPT as described in Balzarini et al, Mol. Pharmocol. 44: 694-701 (1993). 188-His was then further converted to HIV-1/188-Leu "188-Leu") upon further passage in cell culture in the absence of the HEPT.
(§3) CEM cells were suspended at ≈300,000 cells per ml of culture medium and infected with approximately 100 CCID50 (CCID50 being the 50% cell culture infective dose) of HIV-1(IIIB) or one of the HIV-1 RT mutant strains described above. Then 100 μl of the infected cell suspensions was added to 200 μl microtiter plate wells containing 100 μl of appropriate serial (5-fold) dilutions of the test compounds. […]

The test system of a further data set is HIV-1/103-Asn. Briefly: Inhibition of HIV-1 induced syncytium formation in CEM cells, RT mutant 103-Asn. The format is cell-based. The following applies: Human immunodeficiency virus 1, CCRF-CEM, 96 h, Table 2A, day 4, averages of 2 to 3 independent experiments, read-out: Antiviral Activity EC50, 103-Asn. In outline: as §1
A further data set relates to HIV-1 RT mutant strains. Briefly: Antiviral activity in CEM cells against the HIV-1 RT mutant strains. The format is cell-based. To be noted: Human immunodeficiency virus 1, CCRF-CEM, read-out: EC50 values against the HIV-1 RT mutant strains.
Description: as §2, §3

The next data set relates to HIV-1/Lys-138. Briefly: Inhibition of HIV-1 induced syncytium formation in CEM cells, RT mutant 138-Lys. The format is cell-based. To be noted: Human immunodeficiency virus 1, CCRF-CEM, 96 h, Table 2A, day 4, averages of 2 to 3 independent experiments, read-out: Antiviral Activity EC50, 138-Lys. In outline: as §1
The test system of another data set is HIV-1/106-Ala. The data set can be described thus: Inhibition of HIV-1 induced syncytium formation in CEM cells, RT mutant 106-Ala. The following applies: Human immunodeficiency virus 1, CCRF-CEM, 96 h, Table 2A, day 4, averages of 2 to 3 independent experiments, read-out: Antiviral Activity EC50, 106-Ala. The data set is classed as cell-based. In outline: as §1

For another data set, the system named is HIV-1/181-Cys. Briefly: Inhibition of HIV-1 induced syncytium formation in CEM cells, RT mutant 181-Cys. The following applies: Human immunodeficiency virus 1, CCRF-CEM, 96 h, Table 2A, day 4, averages of 2 to 3 independent experiments, read-out: Antiviral Activity EC50, 181-Cys. The data set is classed as cell-based. In outline:
as §1

Another data set has as its system HIV-1(IIIB). Briefly: Inhibition of HIV-1 induced syncytium formation in CEM cells, wild type. The data set is classed as cell-based. The following applies: Human immunodeficiency virus 1, IIIB, CCRF-CEM, 96 h, Table 2A, WT = HIV-1(IIIB), day 4, averages of 2 to 3 independent experiments, read-out: Antiviral Activity EC50, WT. In outline:
as §1

For another data set, the system named is HIV-1/188-Leu. Briefly: Inhibition of HIV-1 induced syncytium formation in CEM cells, RT mutant 188-Leu. The data set is classed as cell-based. To be noted: Human immunodeficiency virus 1, CCRF-CEM, 96 h, Table 2A, day 4, averages of 2 to 3 independent experiments, read-out: Antiviral Activity EC50, 188-Leu. The method in brief:
as §1

The nature of another data set: in vitro. The format is cell-based. To be noted: human, cem cells, CC50 (50% cytostatic concentration), Table 2A; CEM cell proliferation; averages of 2 to 3 independent experiments. The method in brief:
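In CEM cells, the cytostatic value is the compound concentration giving 50% inhibition of cell proliferation. Parallel work used HIV-1(IIIB) and culture-selected resistant strains Lys-138, 181-Cys, 188-His and 188-Leu.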

Data set [2] relates to HIV-1 strains containing the 100 Leu →Ile mutation in their RT. The following applies: background, Balzarini I and II; cited from earlier work.
The test system of data set [3] is 181 Tyr →Cys mutation in the RT of HIV-1 strains. The following applies: background, Balzarini I and II; cited from earlier work.

In brackets after ≈: the same amount, converted by molar mass.

Regarding `CC(C)=CCOc1cc(NC(=S)c2ccoc2C)ccc1Cl` [Compound IA, N-[4-chloro-3-(3-methyl-2-butenyloxy)phenyl]-2-methyl-3-furancarbothioamide], the half-maximal effective concentration (EC50) is 3 ng/mL (≈ 0.00893 µM) in the data set with HIV-1/100-Ile; 6 ng/mL (≈ 0.0179 µM) with HIV-1/103-Asn; 3 to 11 ng/mL (≈ 0.00893 to 0.0328 µM) in the data set with HIV-1 RT mutant strains; 5 ng/mL (≈ 0.0149 µM) with HIV-1/Lys-138; 5 ng/mL (≈ 0.0149 µM) with HIV-1/106-Ala; 11 ng/mL (≈ 0.0328 µM) in the data set on HIV-1/181-Cys. The values for the EC50 with HIV-1(IIIB) and in the data set on HIV-1/188-Leu were 3 ng/mL (≈ 0.00893 µM) and 500 ng/mL (≈ 1.49 µM), respectively. For the same compound, in [1], the “EC50 values against HIV-1(IIIB) and the HIV-1 RT mutants (in words)” value was “extremely low, and virtually similar EC50 values”. Besides, the CC50 in the data set “in vitro” was greater than 100000 ng/mL.

For `CC(C)=CCOc1cc(NC(=S)c2ccsc2C)ccc1Cl` [Compound IB, N-[4-chloro-3-(3-methyl-2-butenyloxy)-phenyl]-2-methyl-3thiophenecarbothioamide], the EC50 in the data set with HIV-1/100-Ile is 4 ng/mL (≈ 0.0114 µM); in the data set on HIV-1/103-Asn it was 4 ng/mL (≈ 0.0114 µM); in the data set on HIV-1 RT mutant strains, 3 to 11 ng/mL (≈ 0.00852 to 0.0313 µM); with HIV-1/Lys-138, 5 ng/mL (≈ 0.0142 µM); with HIV-1/106-Ala, 5 ng/mL (≈ 0.0142 µM); in the data set with HIV-1/181-Cys it was 5 ng/mL (≈ 0.0142 µM). Also, the EC50 is 3 ng/mL (≈ 0.00852 µM) with HIV-1(IIIB) and 600 ng/mL (≈ 1.7 µM) in the data set with HIV-1/188-Leu. Further, the “EC50 values against HIV-1(IIIB) and the HIV-1 RT mutants (in words)” value in data set [1] was “extremely low, and virtually similar EC50 values”. In “in vitro”, this compound came in with a CC50 of 5800 ng/mL (≈ 16.5 µM).

`CC(C)=CCN1Cc2cccc3[nH]c(=S)n(c23)C[C@@H]1C` [Compound R82150]: the “resistance of 100 Leu →Ile RT mutant strains” value in data set [2] is “resistant”.

With `CC(C)=CCN1Cc2cc(Cl)cc3[nH]c(=S)n(c23)C[C@@H]1C` [TIBO R82913], in [2], the “resistance of 100 Leu →Ile RT mutant strains” value is “resistant”.

Regarding `Cc1ccnc2c1NC(=O)c1cccnc1N2C1CC1` [nevirapine], in data set [3], the “resistance of 181 Tyr →Cys RT mutant viruses” value is given as “resistant”.

By EC50 is commonly meant the concentration giving half of the maximal effect. One may read the CC50 as the concentration that lowers cell viability or growth by half. A higher CC50 goes with better tolerance by the cells.

Values taken from patent US5696151A, “Compounds useful for the inhibition of the replication of HIV-1 and HIV-1 mutants” (priority 1995, dated 1997).
